From patent publication US12496275B2, “Drug delivery methods and compositions” (Mayo Foundation for Medical Education and Research, priority 2019, dated 2025)

Assays:
[1] = Analysis of encapsulation efficiency and drug loading efficiency of liposomes; format: physicochemical
Description: Analysis of encapsulation efficiency and drug loading efficiency: Liposome-encapsulation efficiency was measured by determining the amount of entrapped drugs. Briefly, the drug-loaded liposome sample was centrifuged in an amicon ultra centrifugal filter with a cut off size of 3 kD in order to separate the unentrapped drug. Total (Tdrug) and unentrapped drug (UEdrug) amounts were determined by measuring the absorbance at λx of respective drugs and comparing with corresponding standard curves. The encapsulated drug (Edrug) amount was calculated by subtracting the amount of unentrapped drugs (UEdrug) from total drug (Tdrug) amount. The drug-encapsulation efficiency (EE %) was expressed as the percentage of the encapsulated amount (Edrug) to the total amount (Tdrug). Drug loading efficiency was expressed as the percentage of encapsulated drug (Edrug) to the total lipid amount (Tlipid).

[2] = stated, no test described; cited from earlier work
PANC-1 cells = assay: In vitro gemcitabine sensitivity after Tet-inducible GIPC shRNA knockdown; format: cell-based, human; conditions: PANC-1, 0.5 μM to 50 μM, 72 h
Description: (§1) Antibodies. Antibody for β-actin and horseradish peroxidase-conjugated secondary antibodies were purchased from Santa Cruz Biotechnology. Anti-GIPC antibody was purchased from Thermo Fisher, USA. shRNA Transfection. The plasmids for Tet-on-inducible GIPC1 shRNA were purchased from Dharmacon, US. Lentivirus stocks for GIPC1 shRNA were prepared and infected into the target cells following standard procedures. After infection, 2 μg/mL of puromycin was added to the medium for antibiotic selection. For the Tet-On-inducible GIPC shRNA, 0.4 μg/mL of doxycycline was used to induce shRNA expression in the stably infected cells.
(§2) In vitro cytotoxicity assay: Approximately, 5×10^3 cells were seeded in 384-well plates. After 18-24 h, cells were treated with increasing concentrations of gemcitabine and incubated for further 72 h. At the end of the incubation, cell viability was measured using CellTiter-Glo® 2.0 Assay (Promega) as per the manufacturer's protocol. Briefly, 24 μL of reagent was added to each well. The plate was incubated at RT for 10 minutes and luminescence signals were measured using Spectramax i3x. Percentage viability is calculated as follows: Viability (%)=100×(ATreated−ABlank)/(AUntreated−ABlank).

AsPC-1 cells = assay: as above; format: cell-based, human; conditions: AsPC-1, 0.5 μM to 50 μM, 72 h
Description: as §1, §2

[3] = tested on: PANC-1 orthotopic xenografts; assay: Single mouse trial, GIPC-1 knockdown plus gemcitabine; format: in vivo, mice; conditions: PANC-1, single mouse, gemcitabine 10 mg/kg
Source text: (§3) In vivo tumor growth inhibition experiment: A single mouse trial (SMT) was used to assess the in vivo tumor inhibition study in combination with GIPC-1 knockdown plus gemcitabine treatment. This strategy is currently being used in ‘Avatar’ models for the development of personalized therapy for various diseases. These ‘Avatar’ models are developed by implanting patient tumor samples in mice for subsequent drug efficacy studies. […] We used the same strategy in our SMT. All procedures were performed according to the approved guidelines. For the pancreatic cancer orthotopic model, 6-8-week-old female SCID mice were obtained from in-house breeding. Approximately, 1×10^6 luciferase-labeled Tet-inducible GIPC-1 shRNA vector-transfected AsPC-1 or PANC-1 cells, resuspended in 100 μL of PBS were injected into the pancreas of each mouse. After three days of cell inoculation, GIPC-1 knockdown was induced by adding doxycycline (0.5 mg/mL) in drinking water for the remainder of the study. […] After completion of the experiment, all tumor-bearing mice were euthanized with CO2; tumors were harvested, and tumor volumes and weights were measured.

[4] = tested on: AsPC-1 orthotopic xenografts; assay: as above; format: in vivo, mice; conditions: AsPC-1, single mouse, gemcitabine 10 mg/kg
Source text: as §3

AsPC-1 tumors = assay: Validation study, GIPC-1 knockdown plus gemcitabine, 5 mice per group; format: in vivo; conditions: AsPC-1, 5 mice per group, gemcitabine 10 mg/kg
Description: as §3, with “This” for “In vivo tumor growth inhibition experiment: A single mouse trial (SMT) was used to assess the in vivo tumor inhibition study in combination with GIPC-1 knockdown plus gemcitabine treatment. This”

For `CO[C@H]1C[C@@H]2CC[C@@H](C)[C@@](O)(O2)C(=O)C(=O)N2CCCC[C@H]2C(=O)O[C@H]([C@H](C)C[C@@H]2CC[C@@H](OCCO)[C@H](OC)C2)CC(=O)[C@H](C)/C=C(\C)[C@@H](O)[C@@H](OC)C(=O)[C@H](C)C[C@H](C)/C=C/C=C/C=C/1C` [everolimus], the “% of Total drug loading w.r.t Total lipid” value ([1]; everolimus) is listed as 7.29%, the “Encapsulation efficiencies (%)” value ([1]; everolimus) is listed as ~100% and the water solubility [2] is listed as “water insoluble”.
For `CCc1c2c(nc3ccc(OC(=O)N4CCC(N5CCCCC5)CC4)cc13)-c1cc3c(c(=O)n1C2)COC(=O)[C@]3(O)CC` [IRT, irinotecan], the water solubility [2] is given as “poorly water-soluble”.
For `NC(N)=NCCC[C@H](NC(=O)c1sccc1NS(=O)(=O)c1cccc2nsnc12)C(=O)O` [EG00229], the “% of Total drug loading w.r.t Total lipid” value ([1]; EG00229) was 2.2% and the “Encapsulation efficiencies (%)” value ([1]; EG00229) was 30%.
For `CCC1=C[C@@H]2CN(C1)Cc1c([nH]c3ccccc13)[C@@](C(=O)OC)(c1cc3c(cc1OC)N(C)[C@H]1[C@@](O)(C(=O)OC)[C@H](OC(C)=O)[C@]4(CC)C=CCN5CC[C@]31[C@@H]54)C2` [vinorelbine], the “% of Total drug loading w.r.t Total lipid” value ([1]; vinorelbine) is listed as 3.5%, the “Encapsulation efficiencies (%)” value ([1]; vinorelbine) is listed as 23.7% and the water solubility [2] is listed as “highly water soluble”.
In the case of `Nc1ccn([C@@H]2O[C@H](CO)[C@@H](O)C2(F)F)c(=O)n1` [gemcitabine], the “growth inhibition by gemcitabine in GIPC-depleted vs control cells” value (“growth inhibition … vs control cells” for short) (PANC-1 cells) is reported as “steeper growth inhibition curve”, the “growth inhibition … vs control cells” value (PANC-1 cells; listed as Gemcitabine) is reported as “sensitizes” and the “growth inhibition … vs control cells” value (AsPC-1 cells) is reported as “steeper growth inhibition curve”. For the same compound, the “growth inhibition … vs control cells” value (AsPC-1 cells; listed as Gemcitabine) was “sensitizes”, the “response of GIPC-depleted tumors to gemcitabine (tumor volume, weight)” value (from here on “response of GIPC-depleted tumors”) [3] was “increasing gemcitabine efficacy” and the “response of GIPC-depleted tumors” value ([3]; listed as Gemcitabine) was “significantly higher response”. The “response of GIPC-depleted tumors” value [4] was “increasing gemcitabine efficacy”, the “response of GIPC-depleted tumors” value ([4]; listed as Gemcitabine) was “significantly higher response” and the “response of GIPC-depleted tumors” value (AsPC-1 tumors) was “increasing gemcitabine efficacy”. For the same compound, the “response of GIPC-depleted tumors” value (AsPC-1 tumors; listed as Gemcitabine) was “more or less similar results”.
